Measurements taken from PubChem BioAssay AID330 (DTP/NCI, 2004).
“And” between values parts separate entries of the source, which are not always exact repeats. Identical values can stand only once. Inconclusive results and toxic doses are left out. The calls were made as follows: active = survival T/C of 150% or more; inactive = T/C below 125% in these data.

Tested on: P388 leukemia ip, CD2F1 mice, survival T/C
Assay: NCI In Vivo Anticancer Drug Screen. Data for tumor model P388 Leukemia (intraperitoneal) in CD2F1 (CDF1) mice
Conditions: endpoint: median survival time, higher = longer survival
Summary of the method: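 Mice carrying the transplanted tumor received test compound or vehicle. Survival was recorded in each group, and the value is the treated-group measurement divided by that of the vehicle-treated control group.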

[1] = dose: 50.0 mg/kg/injection, schedule: Q01DX005 (ip), vehicle: saline
[2] = dose: 50.0 mg/kg/injection, schedule: Q01DX009 (ip), vehicle: Klucel (hydroxypropylcellulose) (HPC)
[3] = dose: 100.0 mg/kg/injection, schedule: Q01DX009 (ip), vehicle: Klucel (hydroxypropylcellulose) (HPC)
[4] = dose: 200.0 mg/kg/injection, schedule: Q01DX009 (ip), vehicle: Klucel (hydroxypropylcellulose) (HPC)
[5] = dose: 12.5 mg/kg/injection, schedule: Q01DX005 (ip), vehicle: saline
[6] = dose: 25.0 mg/kg/injection, schedule: Q01DX005 (ip), vehicle: saline
[7] = dose: 50.0 mg/kg/injection, schedule: Q01DX005 (ip), vehicle: Klucel (hydroxypropylcellulose) (HPC)
[8] = dose: 100.0 mg/kg/injection, schedule: Q01DX005 (ip), vehicle: Klucel (hydroxypropylcellulose) (HPC)
[9] = dose: 200.0 mg/kg/injection, schedule: Q01DX005 (ip), vehicle: Klucel (hydroxypropylcellulose) (HPC)
[10] = dose: 60.0 mg/kg/injection, schedule: Q01DX005 (ip), vehicle: saline
[11] = dose: 120.0 mg/kg/injection, schedule: Q01DX005 (ip), vehicle: saline
[12] = dose: 240.0 mg/kg/injection, schedule: Q01DX005 (ip), vehicle: saline
[13] = dose: 12.5 mg/kg/injection, schedule: Q01DX005 (ip), vehicle: saline with Tween-80
[14] = dose: 25.0 mg/kg/injection, schedule: Q01DX005 (ip), vehicle: saline with Tween-80
[15] = dose: 50.0 mg/kg/injection, schedule: Q01DX005 (ip), vehicle: saline with Tween-80
[16] = dose: 100.0 mg/kg/injection, schedule: Q01DX005 (ip), vehicle: saline with Tween-80
[17] = dose: 50.0 mg/kg/injection, schedule: Q01DX009 (ip), vehicle: saline with Tween-80
[18] = dose: 60.0 mg/kg/injection, schedule: Q01DX005 (ip), vehicle: saline with Tween-80
[19] = dose: 120.0 mg/kg/injection, schedule: Q01DX005 (ip), vehicle: saline with Tween-80
[20] = dose: 240.0 mg/kg/injection, schedule: Q01DX005 (ip), vehicle: saline with Tween-80
[21] = dose: 60.0 mg/kg/injection, schedule: Q01DX005 (ip), vehicle: Klucel (hydroxypropylcellulose) (HPC)
[22] = dose: 120.0 mg/kg/injection, schedule: Q01DX005 (ip), vehicle: Klucel (hydroxypropylcellulose) (HPC)
[23] = dose: 240.0 mg/kg/injection, schedule: Q01DX005 (ip), vehicle: Klucel (hydroxypropylcellulose) (HPC)

Measured: T/C

CC(C)CNc1ncnc2c1cnn2C
inactive: [1] 94 % of control | dose: 100.0 mg/kg/injection, schedule: Q01DX005 (ip), vehicle: saline 112 % of control | dose: 200.0 mg/kg/injection, schedule: Q01DX005 (ip), vehicle: saline 115 % of control

c1ccc2c(c1)ccc1c2nnc2nnnn21
inactive: [2] 104 % of control | [3] 105 % of control | [4] 95 % of control

CCCCN(CCCC)C(=N)c1ccc(OC)c(OC)c1
inactive: dose: 6.25 mg/kg/injection, schedule: Q01DX005 (ip), vehicle: saline 98 % of control | [5] 100 % of control | [6] 100 % of control

NC(C(=O)O)/C1=C/CCCCCC1 (stereo not given)
inactive: dose: 25.0 mg/kg/injection, schedule: Q01DX005 (ip), vehicle: Klucel (hydroxypropylcellulose) (HPC) 106 % of control | [7] 101 % of control | [8] 98 % of control | [9] 101 % of control

CSCS(=O)CC(C)C (stereo not given)
inactive: dose: 50.0 mg/kg/injection, schedule: Q01DX005 (ip), vehicle: water 104 % of control | dose: 100.0 mg/kg/injection, schedule: Q01DX005 (ip), vehicle: water 102 % of control | dose: 200.0 mg/kg/injection, schedule: Q01DX005 (ip), vehicle: water 105 % of control

CCC(=O)C12CCCC1=NC(=N)N=C2C1=NC(=N)N=C2CCCC21C(=O)CC (stereo not given)
inactive: [10] 102 % of control | [11] 108 % of control | [12] 88 % of control

[NH-]CC(=O)O.[NH-]CC(=O)O.[Ni+2]
inactive: dose: 6.25 mg/kg/injection, schedule: Q01DX005 (ip), vehicle: saline with Tween-80 100 % of control | [13] 100 % of control

CC(C)(NCc1ccccc1)C(=O)OC(C)(C)C(=O)NCc1ccccc1
inactive: [14] 100 % of control and 103 % of control | [15] 95 % of control and 108 % of control | [16] 95 % of control

CS/C(=C\c1ccc2ccccc2[n+]1C)N1CCN(CCCO)CC1
inactive: dose: 15.0 mg/kg/injection, schedule: Q01DX005 (ip), vehicle: saline 104 % of control | dose: 30.0 mg/kg/injection, schedule: Q01DX005 (ip), vehicle: saline 95 % of control | [10] 95 % of control

CCOC(=O)CC(C)C#N (stereo not given)
inactive: [17] 99 % of control | dose: 100.0 mg/kg/injection, schedule: Q01DX009 (ip), vehicle: saline with Tween-80 99 % of control | dose: 200.0 mg/kg/injection, schedule: Q01DX009 (ip), vehicle: saline with Tween-80 101 % of control

COC(=O)C12CC3(C)OC1(C)OC(=O)C2(Cc1ccccc1)N3C(C)=O (stereo not given)
inactive: [18] 104 % of control | [19] 104 % of control | [20] 97 % of control

O=C(/C=C/c1ccco1)C1C(=O)CCC1=O
inactive: dose: 50.0 mg/kg/injection, schedule: Q01DX005 (ip), vehicle: Klucel + Tween-80 98 % of control | dose: 100.0 mg/kg/injection, schedule: Q01DX005 (ip), vehicle: Klucel + Tween-80 104 % of control

CC(=O)OCC1OC(Nc2[nH]c(=O)[nH]c(=O)c2N=O)C(OC(C)=O)C(OC(C)=O)C1OC(C)=O (stereo not given)
inactive: [10] 111 % of control | [11] 103 % of control | [12] 103 % of control

Cc1cnc(C)n2ncnc12
inactive: dose: 100.0 mg/kg/injection, schedule: Q04DX003 (ip), vehicle: saline 93 % of control | dose: 200.0 mg/kg/injection, schedule: Q04DX003 (ip), vehicle: saline 95 % of control | dose: 400.0 mg/kg/injection, schedule: Q04DX003 (ip), vehicle: saline 88 % of control

CNC(=O)OCc1ccc(NCCN(C)C)c2c(=O)c3cc(O)ccc3sc12
inactive: [13] 112 % of control

COc1ccccc1N=N/C(=N\Nc1ccccc1OC)C(=O)Nc1ccccc1
inactive: dose: 6.25 mg/kg/injection, schedule: Q01DX009 (ip), vehicle: saline 89 % of control | dose: 12.5 mg/kg/injection, schedule: Q01DX009 (ip), vehicle: saline 91 % of control | dose: 25.0 mg/kg/injection, schedule: Q01DX009 (ip), vehicle: saline 90 % of control | dose: 100.0 mg/kg/injection, schedule: Q01DX009 (ip), vehicle: saline 93 % of control

CCN(CC)C1=Nc2ccccc2N(c2ccccc2)C(N2CCCCC2)=C1
inactive: dose: 12.5 mg/kg/injection, schedule: Q04DX002 (ip), vehicle: Klucel (hydroxypropylcellulose) (HPC) 99 % of control | dose: 25.0 mg/kg/injection, schedule: Q04DX002 (ip), vehicle: Klucel (hydroxypropylcellulose) (HPC) 99 % of control | dose: 50.0 mg/kg/injection, schedule: Q04DX002 (ip), vehicle: Klucel (hydroxypropylcellulose) (HPC) 101 % of control

COc1ccc2ccc3ccc(OC)c(OC(C)=O)c3c2c1
inactive: [21] 100 % of control | [22] 98 % of control | [23] 91 % of control

O=C(O)CCN1C(=O)CCC1=O
inactive: dose: 100.0 mg/kg/injection, schedule: Q04DX003 (ip), vehicle: saline with Tween-80 100 % of control | dose: 200.0 mg/kg/injection, schedule: Q04DX003 (ip), vehicle: saline with Tween-80 95 % of control | dose: 400.0 mg/kg/injection, schedule: Q04DX003 (ip), vehicle: saline with Tween-80 91 % of control

N=c1c2ccccc2cc2c3ccccc3ccn12
inactive: [18] 115 % of control | [19] 99 % of control | [20] 108 % of control

Clc1ccc(C(c2ccc(Cl)cc2)C(Cl)(Cl)Cl)cc1
inactive: dose: 1.56 mg/kg/injection, schedule: Q01DX009 (ip), vehicle: saline with Tween-80 105 % of control | dose: 3.12 mg/kg/injection, schedule: Q01DX009 (ip), vehicle: saline with Tween-80 98 % of control | dose: 6.25 mg/kg/injection, schedule: Q01DX009 (ip), vehicle: saline with Tween-80 100 % of control | dose: 12.5 mg/kg/injection, schedule: Q01DX009 (ip), vehicle: saline with Tween-80 98 % of control | [17] 99 % of control

CCCCN(CCCC)CCOc1c[nH]c(=O)[nH]c1=O
inactive: [7] 103 % of control | [8] 106 % of control

N=C1SC23CCCN2C(=O)C2(CCCN2C3=O)S1
inactive: dose: 100.0 mg/kg/injection, schedule: Q01DX001 (ip), vehicle: saline 96 % of control | dose: 200.0 mg/kg/injection, schedule: Q01DX001 (ip), vehicle: saline 92 % of control | dose: 400.0 mg/kg/injection, schedule: Q01DX001 (ip), vehicle: saline 92 % of control

CCOC(=O)C1=C(C)N(C)C(C)=C(C(=O)OCC)C1
inactive: [18] 108 % of control | [19] 100 % of control | [20] 101 % of control

CC(=O)Nc1ccc(NC(=S)Nc2ccccc2C(F)(F)F)cc1
inactive: [2] 96 % of control | [3] 92 % of control | [4] 87 % of control

COc1cc(NC(=O)C2=C(C)NC(C)=C(C(=O)Nc3cc(OC)c(Cl)cc3OC)C2c2cccc([N+](=O)[O-])c2)c(OC)cc1Cl
inactive: [21] 89 % of control | [22] 89 % of control

CC(C)(C)/C=C/N=NNc1cc2ccccc2s1
inactive: [21] 100 % of control | [22] 105 % of control | [23] 108 % of control

Cc1cc2c(cc1C)[n+](=O)c1c(n2[O-])CCC1
inactive: [18] 100 % of control | [19] 95 % of control

CCOC(=O)c1cn(C)c(=O)c(Br)c1C#N
inactive: [15] 92 % of control | [16] 96 % of control | dose: 200.0 mg/kg/injection, schedule: Q01DX005 (ip), vehicle: saline with Tween-80 93 % of control

Nc1ncnc2c1ncn2Cc1cccnc1
inactive: [7] 98 % of control | [8] 98 % of control | [9] 100 % of control

CC1CN1P(=O)(c1ccccc1)N1CC1C (stereo not given)
inactive: [13] 108 % of control | [5] 100 % of control | [14] 100 % of control | [6] 95 % of control | [15] 104 % of control and 97 % of control | [1] 96 % of control | dose: 50.0 mg/kg/injection, schedule: Q01DX005 (ip), vehicle: suspension in saline 105 % of control | dose: 100.0 mg/kg/injection, schedule: Q01DX005 (ip), vehicle: suspension in saline 115 % of control
